Experimental data from US9145424B2, “Treatment of amyotrophic lateral sclerosis” (Northwestern University, priority 2008, dated 2015).
Values after ≈ are worked out from the molar mass of the structure shown. Values joined by “and” are separate entries in the source; they are usually repeats but may differ in a detail not shown here. Equal values may be shown once. Read-outs that look alike come from different tables or passages of the source.

How the values were obtained:
Aqueous solubility = assay type: physicochemical
Method: Solubility: Because compounds are stored in DMSO, it is necessary to determine aqueous solubility of initial hit compounds and their analogs. High solubility in aqueous solution is necessary for high GI absorption, bioavailability, and for chemical formulation. Compounds should be soluble in aqueous solution at >10 μg/ml. Solubility of >50 μg/ml is preferred.

[1] = In vitro microsomal stability, human; assay type: in vitro ADME; settings: human, human liver microsomes; read-out: human metabolic potential T1/2
Method: (§1) Metabolism (microsome, S9 fraction, CYP450): Liver Cytochrome P450 (CYP450) enzymes are the major route for xenobiotic metabolism and microsomal and hepatocyte stability is the best predictor of pharmacokinetic half-life. Cross-species comparisons of metabolism in liver microsomes can predict potential issues with liver toxicity in humans. Selected active compounds are tested in liver microsomes from efficacy species (mouse), toxicity species (rat, dog, monkey), and humans for metabolic stability.
(§2) CMB-087229 was sent for an evaluation of its in vitro ADME properties.
(§3) Two possible amines, secondary and tertiary AAP analogues, were initially screened in the protection assay (FIG. 30) and for in vitro microsomal stability (Table 1) and Caco-2 permeability (Table 2). […] The solubilities of 2 and 3 were good in aqueous media (≧150 μM), and no precipitation occurred at the highest concentration. The in vitro plasma half-life for both compounds was >60 min.

[2] = Brain uptake procedure, LCMS of brain and plasma; assay type: in vivo, mice (Tg6799 colony with B6/SJL background); settings: 1 mg/kg i.p.; for concentration at 10 min / Kp at 10 min: Tg6799 colony with B6/SJL background, mouse, intraperitoneal, 1 mg/kg; for Kp at 10 min: brain/plasma
Method: CMB-087229 Mice Brain and Plasma Data CMB-087229 (1 mg/kg) was administrated to mice (Tg6799 colony with B6/SJL background) by intraperitoneal injection in a 60% PBS and 40% dimethyl sulfoxide solution. At 10 minutes after compound administration the mice were sacrificed. Blood was harvested and plasma was transferred to flash freeze in liquid nitrogen after centrifugation. Mice were perfused. The brain was homogenized in 100% acetonitrile. CMB-003319 (0.5 μg, 1.73 nmol) was added as an internal standard. The homogenates were centrifuged at 12000×g for 12 min, and the supernatant was evaporated. The residue was reconstituted in 33.3% acetonitrile. Solid phase extraction followed by LCMS (API 300 liquid chromatography-tandem mass spectrometry system, Applied Biosystems, Foster City, Calif.; Agilent 1100 series HPLC system, Agilent Technologies, Wilmington, Del.) was used to quantify the amount of CMB-087229 in mouse brain. Solid-phase extraction cartridges (Sep-Pak C18, Water Associates, Milford, Mass.) were washed with 1 mL acetonitrile and equilibrated with 1 mL of water. The reconstituted supernatant was then loaded, washed with 1 mL×2 of 33.3% acetonitrile. CMB-087229 was then dried and submitted for LCMS.

[3] = Metabolic half-life in rats; assay type: in vitro ADME; settings: rat
From the text: as §2

G93A SOD1 ALS mice = test: Survival in the G93A SOD1 ALS mouse model; assay type: in vivo; settings: 20 mg/kg
Method: The compounds identified were evaluated in the transgenic G93A ALS mouse model. ADME data was used to determine optimal route of administration. LD50 and maximally-tolerated dose were determined, and that information was used to design and execute pharmacokinetic studies to assess brain bioavailability, and to guide choice of dosing regimen (i.e., frequency, dose, route). […] This may include further dose optimization, phenotype assessment, comparison with compounds of established efficacy, and analysis of brain tissue in treated animals.
In the present study, G93A SOD1 mice and littermate controls were bred from existing colonies at the Bedford VA Medical Hospital. The male G93A SOD1 mice were mated with B6SJL females and the offspring were genotyped by PCR using tail DNA. […] Mice were housed in micro-isolator cages in complete barrier facilities. A 12 hour light-dark cycle was maintained and animals were given free access to food and water. Control and transgenic mice of the same age (±2 days) and from the same ‘f’ generation were selected from multiple litters to form experimental cohorts (n=20 per group). […]
Data sets are generated and analyzed for each clinical and neuropathological measure. […] Dose-dependent effects are assessed in each treatment group using multiple two-sided ANOVA tests. […]

in vivo = settings: mouse
[4] = In vitro Caco-2 permeability; assay type: in vitro ADME; settings: human, Caco-2
Method: General Permeability: High membrane permeability is required for effective GI absorption and optimal bioavailability. Passive permeability is typically assessed in the PAMPA artificial membrane assay (Kansy et al., J. Med. Chem. 2002, 45(8), 1712-1722). Cell-based permeability determinations using the Caco-2 cell assay are more resource intensive but more predictive of active transport or efflux in vivo (Artursson et al., Adv. Drug. Deliv. Rev. 2001, 46(1-3), 27-43). Caco-2 assays are performed as needed during SAR development.

[5] = tested on: PC12 cells that express mutant G93A SOD1; test: Mutant SOD1-induced cytotoxicity protection assay
Method: This idea was tested by examining the sensitivity of PC12 cells to SOD1 aggregates in the presence and absence of proteasome inhibitor MG132. PC12 cells expressing no SOD1, wild type SOD1, G85R SOD1 or G93A SOD1 were grown with or without MG132 (FIG. 1).
PC12 cells expressing G93A SOD1 were treated with 100 nM MG132 with or without co-treatment with geldanamycin or radicicol.

[6] = In vitro microsomal stability, mouse; assay type: in vitro ADME; settings: mouse, mouse liver microsomes; read-out: mouse metabolic potential T1/2
Method: as §1, §2, §3

[7] = In vitro plasma stability; assay type: in vitro ADME; settings: plasma; read-out: plasma stability T1/2
Method: Plasma stability: Plasma stability of active compounds is assessed in efficacy species (mouse), toxicity species (rat, dog, monkey), and human cells.

## O=c1cc(COc2cc(Cl)cc(Cl)c2)[nH][nH]1 [CMB-087229]
Aqueous solubility
  aqueous solubility: 250 µM (≈ 64.8 µg/mL)
[1]
  half-life: 93 min
[2]; 10 minutes, single mice
  Brain Extract concentration: 0.159 µg/mL and 0.187 µg/mL
  Brain concentration: 0.366 µg/g and 0.467 µg/g
  Brain/plasma Ratio July: 4.10 and 3.13
  Plasma concentration July: 0.0892 µg/mL and 0.149 µg/mL
[2]; brain extract, 10 minutes, single mice, read-out: Brain Extract concentration
  concentration at 10 min: 121 ng/mL
[2]; brain, 10 min July, read-out: Brain concentration (Mean ± S.E.)
  concentration at 10 min: 363 ± 105 ng/g
[2]; brain, 10 minutes, single mice, read-out: Brain concentration
  concentration at 10 min: 257 ng/g
[2]; 10 min July, read-out: Brain/Plasma Ratio (Mean ± S.E.)
  Kp at 10 min: 3.36 ± 0.66
[2]; 10 minutes, single mice, read-out: Brain/plasma Ratio July
  Kp at 10 min: 2.84
[2]; plasma, 10 min July, read-out: Plasma concentration (Mean ± S.E.)
  concentration at 10 min: 110 ± 34.2 ng/mL
[2]; plasma, 10 minutes, single mice, read-out: Plasma concentration July
  concentration at 10 min: 90.4 ng/mL
[3]
  half-life: ~120 min
G93A SOD1 ALS mice
  extension in survival: 13.4%
In vivo
  Kp: ~0.55
In vivo; concentration in the brain
  concentration at 4 h: 194 µM
In vivo; plasma concentration
  concentration at 3 h: 342 µM
  concentration at 6 h: 347 µM
  concentration at 12 h: 248 µM
  concentration at 24 h: 1680 nM
[4]
  Papp (A→B): 37 ×10⁻⁶ cm/s
[5]
  potency (ED50): 74 nM
[6]
  half-life: 36 min
[7]
  half-life: 17 min
